According to the NIST ThermoML archive (doi:10.1021/acs.jced.6b00526):
± gives the expanded uncertainty stated by the source.

Assay: xn = mol fraction of the nth substance listed
Conditions: 100 kPa, Liquid; for mass density: Vibrating tube method; for viscosity: Falling or rolling sphere viscometry

OCCCO [propan-1,3-diol] + O
Conditions	mass density, 288.15 K [kg/m3]	mass density, 293.15 K [kg/m3]	mass density, 298.15 K [kg/m3]	mass density, 303.15 K [kg/m3]	mass density, 308.15 K [kg/m3]	mass density, 313.15 K [kg/m3]	mass density, 318.15 K [kg/m3]	viscosity, 293.15 K [mPa·s]	viscosity, 298.15 K [mPa·s]	viscosity, 303.15 K [mPa·s]
x2 = 0	1056.2 ± 4.3	1053.2 ± 4.3	1049.9 ± 4.3	1046.7 ± 4.3	1043.5 ± 4.3	1040.4 ± 4.2	1037.9 ± 4.2	51.55 ± 8.3	40.8 ± 6.5	32.74 ± 5.3
x2 = 0.0749	–	–	–	–	–	–	–	46.34 ± 7.4	36.93 ± 5.9	29.67 ± 4.8
x2 = 0.1625	1056.2 ± 4.3	1053.1 ± 4.3	1049.7 ± 4.2	1046.4 ± 4.2	1043.1 ± 4.2	1039.9 ± 4.2	1037.4 ± 4.2	40.76 ± 6.5	32.58 ± 5.2	26.38 ± 4.2
x2 = 0.1737	1056.2 ± 4.3	1053.1 ± 4.3	1049.7 ± 4.2	1046.4 ± 4.2	1043.1 ± 4.2	1040 ± 4.2	1037.4 ± 4.2	–	–	–
x2 = 0.2386	1056.4 ± 4.3	1053.3 ± 4.2	1049.9 ± 4.2	1046.6 ± 4.2	1043.2 ± 4.2	1040.1 ± 4.2	1037.5 ± 4.2	–	–	–
x2 = 0.239	–	–	–	–	–	–	–	35.86 ± 5.8	29.01 ± 4.7	23.45 ± 3.8
x2 = 0.2519	1056.5 ± 4.3	1053.4 ± 4.2	1049.9 ± 4.2	1046.6 ± 4.2	1043.3 ± 4.2	1040.1 ± 4.2	1037.5 ± 4.2	–	–	–
x2 = 0.3216	1056.6 ± 4.3	1053.5 ± 4.2	1050.1 ± 4.2	1046.8 ± 4.2	1043.5 ± 4.2	1040.2 ± 4.2	1037.6 ± 4.2	–	–	–
x2 = 0.3361	–	–	–	–	–	–	–	29.72 ± 4.8	24.27 ± 3.9	19.97 ± 3.2
x2 = 0.3669	1056.4 ± 4.2	1053.3 ± 4.2	1050 ± 4.2	1046.7 ± 4.2	1043.3 ± 4.2	1040.1 ± 4.2	1037.5 ± 4.2	–	–	–
x2 = 0.4223	–	–	–	–	–	–	–	24.46 ± 3.9	20.06 ± 3.2	16.66 ± 2.7
x2 = 0.4238	1056 ± 4.2	1053 ± 4.2	1049.6 ± 4.2	1046.4 ± 4.2	1043.1 ± 4.2	1039.9 ± 4.2	1037.3 ± 4.2	–	–	–
x2 = 0.4553	1055.6 ± 4.2	1052.6 ± 4.2	1049.3 ± 4.2	1046.1 ± 4.2	1042.8 ± 4.2	1039.6 ± 4.2	1037 ± 4.2	–	–	–
x2 = 0.5075	1054.7 ± 4.2	1051.8 ± 4.2	1048.5 ± 4.2	1045.3 ± 4.2	1042.1 ± 4.2	1038.9 ± 4.2	1036.2 ± 4.2	–	–	–
x2 = 0.5134	–	–	–	–	–	–	–	19.25 ± 3.1	15.64 ± 2.5	13.18 ± 2.1
x2 = 0.5501	1053.7 ± 4.2	1050.8 ± 4.2	1047.6 ± 4.2	1044.4 ± 4.2	1041.2 ± 4.2	1038 ± 4.2	1035.4 ± 4.1	–	–	–
x2 = 0.6009	1052.1 ± 4.2	1049.2 ± 4.2	1046.1 ± 4.2	1042.9 ± 4.2	1039.7 ± 4.2	1036.5 ± 4.2	1033.9 ± 4.1	–	–	–
x2 = 0.6309	–	–	–	–	–	–	–	13.16 ± 2.1	10.59 ± 1.7	8.95 ± 1.4
x2 = 0.653	1049.9 ± 4.2	1047.1 ± 4.2	1043.9 ± 4.2	1040.8 ± 4.2	1037.6 ± 4.2	1034.4 ± 4.1	1031.8 ± 4.1	–	–	–
x2 = 0.7146	1046.3 ± 4.2	1043.5 ± 4.2	1040.4 ± 4.2	1037.2 ± 4.2	1034 ± 4.1	1030.9 ± 4.1	1028.4 ± 4.1	–	–	–
x2 = 0.7446	–	–	–	–	–	–	–	7.99 ± 1.3	6.43 ± 1	5.46 ± 0.88
x2 = 0.7532	1043.2 ± 4.2	1040.5 ± 4.2	1037.4 ± 4.2	1034.3 ± 4.1	1031.1 ± 4.1	1028.1 ± 4.1	1025.5 ± 4.1	–	–	–
x2 = 0.804	1038.3 ± 4.2	1035.5 ± 4.1	1032.6 ± 4.1	1029.6 ± 4.1	1026.6 ± 4.1	1023.5 ± 4.1	1021.1 ± 4.1	–	–	–
x2 = 0.8508	1032.1 ± 4.1	1029.6 ± 4.1	1026.9 ± 4.1	1024.1 ± 4.1	1021.3 ± 4.1	1018.4 ± 4.1	1016.1 ± 4.1	–	–	–
x2 = 0.872	–	–	–	–	–	–	–	3.72 ± 0.6	3.13 ± 0.5	2.78 ± 0.44
x2 = 0.9021	1023.5 ± 4.1	1021.3 ± 4.1	1018.9 ± 4.1	1016.6 ± 4.1	1014 ± 4.1	1011.4 ± 4	1009.2 ± 4	–	–	–
